In patent publication US20130115294A1, “STABLE LIQUID OILY READY-TO-USE FORMULATIONS, PREPARATION THEREOF AND USE THEREOF” (CTS CHEMICAL INDUSTRIES LTD., priority 2010, published 2013):
Where a name gives a salt, the structure may show the parent alone. Read-outs that look alike come from different tables or passages of the source.

Assay: Caco-2 cell monolayer uptake and apparent permeability
Type: in vitro ADME
Settings: human
Description: Caco-2 monolayer were grown in Dulbecco's modified Eagle's medium supplemented with 10% fetal bovine serum, 1% L-glutamine, 1% nonessential amino acids, and 5% antibiotic-antimycotic solution at 37° C. in humidified air, 5% CO2 atmosphere. The culture medium was replaced every 96 h. The uptake studies were conducted with monolayers (passages 73 to 79) in wells of 2 cm^2 which reach confluency following 4 days of incubation in culture. Prior to the experiments, the culture medium was replaced with transport medium and cell monolayers were subsequently equilibrated for 30 min at 37° C. before the uptake study. The transport medium was Hanks buffer composed of 136.89 mM NaCl, 5.36 mM KCl, 0.34 mM Na2HPO4, 0.44 mM KH2PO4, 0.41 mM MgSO4 7H2O, 19.45 mM glucose, 1.26 mM CaCl2, 0.49 mM MgCl2 6H2O, 4.17 mM NaHCO3, 10 mM HEPES, and the pH was adjusted to 7.4.
The powder (10 mg equivalent to 1 mg enalapril maleate) was weighted dispersed and fully dissolved in 1 ml Hanks buffer. 25 μl from this solution were placed in Caco-2 wells with 975 μl of Hanks buffer resulting in a final concentration of 25 μg/ml of enalapril maleate.
A 100 μl of parent CTS oil formulation was withdrawn and diluted with soybean oil USP to give 1 mg/ml of enalapril maleate.
A 25 μl of the diluted oil solution was placed into the transport medium to give a 25 μg/ml of enalapril maleate in each well (dilution 1:40).
All the uptake experiments were performed over 3 hours at 37° C. Following incubation the transport medium was collected in clean tubes stored at −80° C. up to the quantitative determination of the enalapril levels by HPLC (The HPLC method was provided by CTS). Regarding the cell monolayer in the wells, 1 ml of 0.2% SDS was added to each well to elicit lysis of the cell monolayer. The lysate were collected in a clean tube and enalapril was determined by CTS HPLC technique. […]

Papp at 3 h, 25 μg/ml (Caco-2, pH 7.4, 25 μg/ml enalapril maleate, no intestinal juice, read-out: apparent permeability (Papp)): 25.1 ± 0.5 ×10⁻⁶ cm/s
Papp at 3 h, 25 μg/ml (Caco-2, pH 7.4, printed values are Papp multiplied by 10^6, 25 μg/ml enalapril maleate, 37° C., Hanks buffer pH 7.4, + 0.1% intestinal juice (IJ), read-out: Papp × 10^6 (cm/s) ± s.d): 25.2 ± 4.81 ×10⁻⁶ cm/s
Papp at 3 h, 25 μg/ml (Caco-2, pH 7.4, printed values are Papp multiplied by 10^6, 25 μg/ml enalapril maleate, 37° C., Hanks buffer pH 7.4, no intestinal juice, read-out: Papp × 10^6 (cm/s) ± s.d): 25.1 ± 2.93 ×10⁻⁶ cm/s
Compound: CCOC(=O)[C@H](CCc1ccccc1)N[C@@H](C)C(=O)N1CCC[C@H]1C(=O)O [ENL-solution, enalapril maleate]
